# System: Lox-IMVI melanoma cell line
# Assay: Lox-IMVI anti-proliferative assay (growth inhibition, Cell Titer-Glo)
# Format: cell-based, human
# Conditions: Homo sapiens; IC50 activity level in the cell-based Lox-IMVI anti-proliferative assay; read-out: Activity
# Procedure, shortened: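 Viability read by ATP luminescence (Cell Titer-Glo) at t0 and after 72 h at 37 °C, 5% CO2, with normalisation to DMSO-treated cells. Compound tested at 0.5 nM–10 μM in 3-fold, 10-point series (0.2% DMSO final) on Lox-IMVI in RPMI+10% FBS; IC50 by 4-parameter sigmoidal fit.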
row,IC50 [nM],SMILES
1,500 to 1000,"Cc1ccc(Nc2nc3cnc(NC4CCOCC4)nc3n2[C@H]2CC[C@@H](C(N)=O)CC2)c(Cl)c1F [Example 84, (1s,4s)-4-(8-(2-chloro-3-fluoro-4-methylphenylamino)-2-(tetrahydro-2H-pyran-4-ylamino)-9H-purin-9-yl)cyclohexanecarboxamide]"
2,500 to 1000,"NC(=O)[C@H]1CC[C@@H](n2c(Nc3c(F)ccc(F)c3F)nc3cnc(NC4CCC(F)(F)CC4)nc32)CC1 [Example 239, (1s,4s)-4-(2-(4,4-difluorocyclohexylamino)-8-(2,3,6-trifluorophenylamino)-9H-purin-9-yl)cyclohexanecarboxamide]"
3,500 to 1000,"NC(=O)[C@H]1CC[C@@H](n2c(Nc3cc(F)c(F)cc3F)nc3cnc(NC4CCOCC4)nc32)CC1 [Example 58, (1s,4s)-4-(2-(tetrahydro-2H-pyran-4-ylamino)-8-(2,4,5-trifluorophenylamino)-9H-purin-9-yl)cyclohexanecarboxamide]"
4,> 1000,"NC(=O)[C@H]1CC[C@@H](n2c(Nc3c(F)ccc(F)c3F)nc3cnc(N[C@@H]4CCC[C@H]4O)nc32)CC1 [Example 260, (1S,4s)-4-(2-((1R,2R)-2-hydroxycyclopentylamino)-8-(2,3,6-trifluorophenylamino)-9H-purin-9-yl)cyclohexanecarboxamide]"
5,500 to 1000,"NC(=O)[C@H]1CC[C@@H](n2c(Nc3c(F)cc(Cl)cc3F)nc3cnc(N[C@@H]4CCC[C@H](O)C4)nc32)CC1 [Example 352, (1S,4s)-4-(8-(4-chloro-2,6-difluorophenylamino)-2-((1R,3S)-3-hydroxycyclohexylamino)-9H-purin-9-yl)cyclohexanecarboxamide]"
6,250 to 500,"NC(=O)[C@H]1CC[C@@H](n2c(Nc3c(Cl)cccc3Cl)nc3cnc(NC4CCC(F)(F)CC4)nc32)CC1 [Example 236, (1s,4s)-4-(8-(2,6-dichlorophenylamino)-2-(4,4-difluorocyclohexylamino)-9H-purin-9-yl)cyclohexanecarboxamide]"
7,500 to 1000,"NC(=O)[C@H]1CC[C@@H](n2c(Nc3c(Cl)cc(Cl)cc3Cl)nc3cnc(N[C@@H]4CCC[C@H]4O)nc32)CC1 [Example 254, (1S,4s)-4-(2-((1R,2R)-2-hydroxycyclopentylamino)-8-(2,4,6-trichlorophenylamino)-9H-purin-9-yl)cyclohexanecarboxamide]"
8,> 1000,"NC(=O)[C@H]1CC[C@@H](n2c(Nc3c(F)cccc3F)nc3cnc(N[C@@H]4CCOC[C@@H]4F)nc32)CC1 [Example 304, (1S,4s)-4-(8-(2,6-difluorophenylamino)-2-((3R,4R)-3-fluorotetrahydro-2H-pyran-4-ylamino)-9H-purin-9-yl)cyclohexanecarboxamide]"
9,250 to 500,"C[C@@H]1CC[C@@H](Nc2ncc3nc(Nc4c(F)cc(Cl)cc4Cl)n([C@H]4CC[C@@H](C(N)=O)CC4)c3n2)C[C@H]1O [Example 346, (1S,4s)-4-(8-(2,4-dichloro-6-fluorophenylamino)-2-((1R,3R,4R)-3-hydroxy-4-methylcyclohexylamino)-9H-purin-9-yl)cyclohexanecarboxamide]"
10,> 1000,"NC(=O)[C@H]1CC[C@@H](n2c(Nc3ccc(Cl)cc3Cl)nc3cnc(NC4CCCC4)nc32)CC1 [Example 94, (1s,4s)-4-(2-(cyclopentylamino)-8-(2,4-dichlorophenylamino)-9H-purin-9-yl)cyclohexanecarboxamide]"
11,> 1000,"NC(=O)[C@H]1CC[C@@H](n2c(Nc3ccc(Cl)cc3Cl)nc3cnc(NC4COCC4O)nc32)CC1 (stereo partly shown) [Example 191, (1s,4s)-4-(8-(2,4-dichlorophenylamino)-2-(4-hydroxytetrahydrofuran-3-ylamino)-9H-purin-9-yl)cyclohexanecarboxamide]"
12,500 to 1000,"NC(=O)[C@H]1CC[C@@H](n2c(Nc3c(Cl)cc(F)cc3Cl)nc3cnc(N[C@@H]4CCOC4)nc32)CC1 [Example 222, (1S,4s)-4-(8-(2,6-dichloro-4-fluorophenylamino)-2-((R)-tetrahydrofuran-3-ylamino)-9H-purin-9-yl)cyclohexanecarboxamide]"
13,> 1000,"NC(=O)[C@H]1CC[C@@H](n2c(Nc3c(F)cc(F)cc3Cl)nc3cnc(N[C@H]4CCOC4)nc32)CC1 [Example 241, (1R,4s)-4-(8-(2-chloro-4,6-difluorophenylamino)-2-((S)-tetrahydrofuran-3-ylamino)-9H-purin-9-yl)cyclohexanecarboxamide]"
14,> 1000,"C[C@@H](CO)Nc1ncc2nc(Nc3c(Cl)cccc3Cl)n([C@H]3CC[C@@H](C(N)=O)CC3)c2n1 [Example 168, (1R,4s)-4-(8-(2,6-dichlorophenylamino)-2-((S)-1 hydroxypropan-2-ylamino)-9H-purin-9-yl)cyclohexanecarboxamide]"

# Same assay, conditions: Homo sapiens; Lox-IMVI anti-proliferative assay, IC50 activity level; read-out: Activity
row,IC50 [nM],SMILES
1,> 1000,"N#Cc1cc(Cl)c(Nc2nc3cnc(N[C@H](CO)C(F)(F)F)nc3n2[C@H]2CC[C@@H](C(N)=O)CC2)c(Cl)c1 [Example 472, (1S,4s)-4-(8-(2,6-dichloro-4-cyanophenylamino)-2-((R)-1,1,1-trifluoro-3-hydroxypropan-2-ylamino)-9H-purin-9-yl)cyclohexanecarboxamide]"
2,> 1000,"NC(=O)[C@H]1CC[C@@H](n2c(Nc3c(Cl)cccc3Cl)nc3cnc(N[C@@H]4CCC[C@@H](O)C4)nc32)CC1 [Example 417, (1S,4s)-4-(8-(2,6-dichlorophenylamino)-2-((1R,3R)-3-hydroxycyclohexylamino)-9H-purin-9-yl)cyclohexanecarboxamide]"
3,< 250,"C[C@]1(C(N)=O)CC[C@@H](n2c(Nc3c(F)cc(Cl)cc3Cl)nc3cnc(NC4CCCC4)nc32)CC1 [Example 557, (1s,4s)-4-(2-(cyclopentylamino)-8-(2,4-dichloro-6-fluorophenylamino)-9H-purin-9-yl)-1-methylcyclohexanecarboxamide]"
4,> 1000,"NC(=O)[C@H]1CC[C@@H](n2c(Nc3c(F)cc(F)cc3F)nc3cnc(N[C@H]4CCC[C@H](O)C4)nc32)CC1 [Example 458, (1R,4s)-4-(2-((1S,3S)-3-hydroxycyclohexylamino)-8-(2,4,6-trifluorophenylamino)-9H-purin-9-yl)cyclohexanecarboxamide]"
5,> 1000,"C[C@]1(O)CCC[C@@H](Nc2ncc3nc(Nc4c(Cl)cc(F)cc4Cl)n([C@H]4CC[C@@H](C(N)=O)CC4)c3n2)C1 [Example 428, (1S,4s)-4-(8-(2,6-dichloro-4-fluorophenylamino)-2-((1R,3S)-3-hydroxy-3-methylcyclohexylamino)-9H-purin-9-yl)cyclohexanecarboxamide]"
6,< 250,"NC(=O)[C@H]1CC[C@@H](n2c(Nc3c(F)cc(F)cc3Cl)nc3cnc(N[C@@H]4CCC(F)(F)C4)nc32)CC1 [Example 590, (1S,4s)-4-(8-(2-chloro-4,6-difluorophenylamino)-2-((R)-3,3-difluorocyclopentylamino)-9H-purin-9-yl)cyclohexanecarboxamide]"

# Same assay, conditions: Homo sapiens; Lox-IMVI melanoma cell line, anti-proliferative assay; read-out: Activity (IC50 activity level)
row,IC50 [nM],SMILES
1,< 250,"C[C@]1(C(N)=O)CC[C@@H](n2c(Nc3c(F)cc(F)cc3F)nc3cnc(NC4CCC4)nc32)CC1 [Example 607, (1s,4s)-4-(2-(cyclobutylamino)-8-(2,4,6-trifluorophenylamino)-9H-purin-9-yl)-1-methylcyclohexanecarboxamide]"
2,> 1000,"CS(=O)(=O)N1CCC[C@@H](Nc2ncc3nc(Nc4c(F)cc(Cl)cc4F)n([C@H]4CC[C@@H](C(N)=O)CC4)c3n2)C1 [Example 703, (1S,4s)-4-(8-(4-chloro-2,6-difluorophenylamino)-2-((R)-1-(methylsulfonyl)piperidin-3-ylamino)-9H-purin-9-yl)cyclohexanecarboxamide]"
3,< 250,"C[C@]1(C(N)=O)CC[C@@H](n2c(Nc3c(F)cc(C#N)cc3F)nc3cnc(NC4CCC4)nc32)CC1 [Example 601, (1s,4s)-4-(8-(4-cyano-2,6-difluorophenylamino)-2-(cyclobutylamino)-9H-purin-9-yl)-1-methylcyclohexanecarboxamide]"
4,> 1000,"N#Cc1cc(Cl)c(Nc2nc3cnc(N[C@@H]4CCCN(c5ccccc5)C4)nc3n2[C@H]2CC[C@@H](C(N)=O)CC2)c(Cl)c1 [Example 744, (1S,4s)-4-(8-(2,6-dichloro-4-cyanophenylamino)-2-((R)-1-phenylpiperidin-3-ylamino)-9H-purin-9-yl)cyclohexanecarboxamide]"
5,> 1000,"Cc1ccc(S(=O)(=O)N2CCC[C@@H](Nc3ncc4nc(Nc5c(F)cc(F)cc5F)n([C@H]5CC[C@@H](C(N)=O)CC5)c4n3)C2)cc1 [Example 791, (1S,4s)-4-(2-((R)-1-tosylpiperidin-3-ylamino)-8-(2,4,6-trifluorophenylamino)-9H-purin-9-yl)cyclohexanecarboxamide]"
6,500 to 1000,"COC(=O)N1CCC[C@@H](Nc2ncc3nc(Nc4c(F)cc(C#N)cc4Cl)n([C@H]4CC[C@@H](C(N)=O)CC4)c3n2)C1 [Example 709, (R)-methyl 3-(9-((1s,4S)-4-carbamoylcyclohexyl)-8-(2-chloro-4-cyano-6-fluorophenylamino)-9H-purin-2-ylamino)piperidine-1-carboxylate]"
7,> 1000,"N#Cc1cc(F)c(Nc2nc3cnc(N[C@@H]4CCCN(C(=O)Nc5ccccc5)C4)nc3n2[C@H]2CC[C@@H](C(N)=O)CC2)c(Cl)c1 [Example 785, (R)-3-(9-((1s,4S)-4-carbamoylcyclohexyl)-8-(2-chloro-4-cyano-6-fluorophenylamino)-9H-purin-2-ylamino)-N-phenylpiperidine-1-carboxamide]"
8,> 1000,"CS(=O)(=O)C1CC(Nc2ncc3nc(Nc4c(F)cc(Cl)cc4F)n([C@H]4CC[C@@H](C(N)=O)CC4)c3n2)C1 (stereo partly shown) [Example 736, (1s,4s)-4-(8-(4-chloro-2,6-difluorophenylamino)-2-(3-(methylsulfonyl)cyclobutylamino)-9H-purin-9-yl)cyclohexanecarboxamide]"

# Reference: patent US11590139B2, “Substituted aminopurine compounds, compositions thereof, and methods of treatment therewith” (Signal Pharmaceuticals, LLC, priority 2014, dated 2023)
